The nature of experiment [1]: Binding affinity to DNA assessed as dissociation constant at < 2 mM by isothermal spectrophotometric titration method.
Experiment [2] can be described thus: Binding affinity to DNA assessed as association constant at < 2 mM by isothermal spectrophotometric titration method.
Experiment [3] relates to DNA. Kind of experiment: Thermal stabilization of Bos taurus (calf) thymus DNA assessed as change in melting temperature at 13.6 mM by differential scanning calometric method. It is filed as nucleic-acid assay.
Experiment [4] relates to DNA. Kind of experiment: Thermal stabilization of Bos taurus (calf) thymus DNA assessed as change in melting temperature at 2 mM by differential scanning calometric method. It is filed as nucleic-acid assay.
Experiment [5] has as its system DNA. Description: Binding affinity to Bos taurus (calf) thymus DNA at 13.6 mM by isothermal spectrophotometric titration method. The experiment is classed as nucleic-acid assay.
The subject of experiment [6] is DNA. Kind of experiment: Binding affinity to Bos taurus (calf) thymus DNA at 11 mM by isothermal spectrophotometric titration method. It is filed as nucleic-acid assay.
Experiment [7] relates to DNA. Kind of experiment: Binding affinity to Bos taurus (calf) thymus DNA at 9 mM by isothermal spectrophotometric titration method. The experiment is classed as nucleic-acid assay.
Experiment [8] has as its system DNA. Description: Binding affinity to Bos taurus (calf) thymus DNA at 0.5 mM by isothermal spectrophotometric titration method. The experiment is classed as nucleic-acid assay.
Experiment [9] relates to DNA. Kind of experiment: Binding affinity to Bos taurus (calf) thymus DNA at 2 mM by isothermal spectrophotometric titration method. It is filed as nucleic-acid assay.

This is an account of results in ChEMBL document CHEMBL3045431, “Stability of DNA upon interaction with dimethyltin dichloride” (Med Chem Res, 2007).

Activity calls are given as the source filed them. The rule behind the calls is not given here.

For the substance DICHLORODIMETHYLSTANNANE, in experiment [1], the Kd (in general, the free concentration of one partner at which half of the binding sites on the other are occupied at equilibrium, for simple one-to-one binding) amounted to 281 µM.
Take [sequence]: the Ka in experiment [2] amounted to 3.56 ×10³ /M. In the experiment with DNA [3], the Tm is 70.2 °C. Besides, the result with DNA [4] was Active. In addition, the K came to 0.143 ×10³ /M in the experiment with DNA [5]; 0.125 ×10³ /M in the experiment with DNA [6]; 0.123 ×10³ /M in the experiment on DNA [7]; 3.59 ×10³ /M in the experiment with DNA [8]; 3.53 ×10³ /M in the experiment with DNA [9].
